# Legend:
# [1] = system: MOLT-4
# Procedure, shortened: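 Sulforhodamine B staining of TCA-fixed cellular protein was the read-out, following 48 h compound exposure at 37 °C. Plates were pre-incubated 24 h before dosing, and five concentrations (routinely 10^−4 to 10^−8 molar) were tested in duplicate with time-zero and untreated controls. Values derive from test/control percentage growth relative to time-zero mass.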
# [2] = system: SNB-75; assay: NCI 60 cell line panel screen (SRB); format: cell-based, human
# [3] = system: PC-3; assay: NCI 60 cell line panel screen (SRB); format: cell-based, human
# [4] = system: SK-MEL-2; assay: NCI 60 cell line panel screen (SRB); format: cell-based, human
# [5] = system: OVCAR-8; assay: NCI 60 cell line panel screen (SRB); format: cell-based, human
# [6] = system: BT-549; assay: NCI 60 cell line panel screen (SRB); format: cell-based, human
# [7] = system: SK-MEL-28; assay: NCI 60 cell line panel screen (SRB); format: cell-based, human
# [8] = system: MDA-MB231/ATCC; assay: NCI 60 cell line panel screen (SRB); format: cell-based, human
# [9] = system: K-562; assay: NCI 60 cell line panel screen (SRB); format: cell-based, human
# [10] = system: RPMI-8226; assay: NCI 60 cell line panel screen (SRB); format: cell-based, human; details: RPMI-8226 (Leukemia)
# [11] = system: CCRF-CEM; assay: NCI 60 cell line panel screen (SRB); format: cell-based, human
# [12] = system: RXF 393; assay: NCI 60 cell line panel screen (SRB); format: cell-based, human
# [13] = system: NCI-H23; assay: NCI 60 cell line panel screen (SRB); format: cell-based, human
# [14] = system: HOP-62; assay: NCI 60 cell line panel screen (SRB); format: cell-based, human
# [15] = system: UACC-257; assay: NCI 60 cell line panel screen (SRB); format: cell-based, human
# [16] = system: CAKI-1; assay: NCI 60 cell line panel screen (SRB); format: cell-based, human
# [17] = system: MDA-MB-435; assay: NCI 60 cell line panel screen (SRB); format: cell-based, human; details: MDA-MB-435 (Breast Cancer)
smiles,measurement,setting,value
"CC1CCC2C(C)C(CC(O)(CO)CC3OC4OC5(C)CCC6C(C)CCC(C3C)C46OO5)OC3OC4(C)CCC1C32OO4 (centres unmarked) [Compound 5, bis-trioxane vicinal diol]",concentration for cytotoxicity (percentage growth −50),[1],greater than 10^−4 M
same,Log10GI50,"[1]; Leukemia, MOLT-4",<−8.00
same,Log10LC50,"[1]; MOLT-4 (Leukemia), LC50: PG=−50",>−4.00 log10M
same,Log10TGI50,"[1]; MOLT-4 (Leukemia), TGI: PG=0",>−4.00 log10M
same,Log10GI50,"[2]; CNS Cancer, SNB-75",−4.53
same,Log10LC50,"[2]; SNB-75 (CNS Cancer), LC50: PG=−50",>−4.00 log10M
same,Log10TGI50,"[2]; SNB-75 (CNS Cancer), TGI: PG=0",−4.04 log10M
same,Log10LC50,"[3]; PC-3 (Prostate Cancer), LC50: PG=−50",>−4.00 log10M
same,Log10TGI50,"[3]; PC-3 (Prostate Cancer), TGI: PG=0",−4.49 log10M
same,Log10GI50,"[3]; Prostate Cancer, PC-3",<−8.00
same,Log10GI50,"[4]; Melanoma, SK-MEL-2",−4.94
same,Log10LC50,"[4]; SK-MEL2 (Melanoma), LC50: PG=−50",−4.12 log10M
same,Log10TGI50,"[4]; SK-MEL-2 (Melanoma), TGI: PG=0",−4.53 log10M
same,Log10LC50,"[5]; OVCAR-8 (Ovarian Cancer), LC50: PG=−50",>−4.00 log10M
same,Log10TGI50,"[5]; OVCAR-8 (Ovarian Cancer), TGI: PG=0",−4.47 log10M
same,Log10GI50,"[5]; Ovarian Cancer, OVCAR-8",<−8.00
same,Log10LC50,"[6]; BT-549 (Breast Cancer), LC50: PG=−50",−4.30 log10M
same,Log10TGI50,"[6]; BT-549 (Breast Cancer), TGI: PG=0",−4.81 log10M
same,Log10GI50,"[6]; Breast Cancer, BT-549",<−8.00
same,Log10GI50,"[7]; Melanoma, SK-MEL-28",−4.79
same,Log10LC50,"[7]; SK-MEL-28 (Melanoma), LC50: PG=−50",>−4.00 log10M
same,Log10TGI50,"[7]; SK-MEL-28 (Melanoma), TGI: PG=0",−4.31 log10M
same,Log10GI50,"[8]; Breast Cancer, MDA-MB231/ATCC",−4.99
same,Log10LC50,"[8]; MDA-MB231/ATCC (Breast Cancer), LC50: PG=−50",−4.15 log10M
same,Log10TGI50,"[8]; MDA-MB231/ATCC (Breast Cancer), TGI: PG=0",−4.57 log10M
same,Log10LC50,"[9]; K-562 (Leukemia), LC50: PG=−50",>−4.00 log10M
same,Log10TGI50,"[9]; K-562 (Leukemia), TGI: PG=0",>−4.00 log10M
same,Log10GI50,"[9]; Leukemia, K-562",<−8.00
same,Log10LC50,[10]; LC50: PG=−50,>−4.00 log10M
same,Log10TGI50,[10]; TGI: PG=0,>−4.00 log10M
same,Log10LC50,"[11]; CCRF-CEM (Leukemia), LC50: PG=−50",>−4.00 log10M
same,Log10TGI50,"[11]; CCRF-CEM (Leukemia), TGI: PG=0",>−4.00 log10M
same,Log10GI50,"[11]; Leukemia, CCRF-CEM",−4.71
same,Log10LC50,"[12]; RXF 393 (Renal Cancer), LC50: PG=−50",−4.18 log10M
same,Log10TGI50,"[12]; RXF 393 (Renal Cancer), TGI: PG=0",−4.53 log10M
same,Log10GI50,"[12]; Renal Cancer, RXF 393",−4.89
same,Log10LC50,"[13]; NCI-H23 (Non-Small Cell Lung Cancer), LC50: PG=−50",>−4.00 log10M
same,Log10TGI50,"[13]; NCI-H23 (Non-Small Cell Lung Cancer), TGI: PG=0",−4.26 log10M
same,Log10GI50,"[13]; Non-Small Cell Lung Cancer, NCI-H23",−4.83
same,Log10LC50,"[14]; HOP-62 (Non-Small Cell Lung Cancer), LC50: PG=−50",>−4.00 log10M
same,Log10TGI50,"[14]; HOP-62 (Non-Small Cell Lung Cancer), TGI: PG=0",−4.26 log10M
same,Log10GI50,"[14]; Non-Small Cell Lung Cancer, HOP-62",−4.66
same,Log10GI50,"[15]; Melanoma, UACC-257",<−8.00
same,Log10LC50,"[15]; UACC-257 (Melanoma), LC50: PG=−50",−4.36 log10M
same,Log10TGI50,"[15]; UACC-257 (Melanoma), TGI: PG=0",−4.90 log10M
same,Log10LC50,"[16]; CAKI-1 (Renal Cancer), LC50: PG=−50",−4.13 log10M
same,Log10TGI50,"[16]; CAKI-1 (Renal Cancer), TGI: PG=0",−4.54 log10M
same,Log10GI50,"[16]; Renal Cancer, CAKI-1",−4.94
same,Log10LC50,[17]; LC50: PG=−50,−4.09 log10M
same,Log10TGI50,[17]; TGI: PG=0,−4.54 log10M
